Results on one substance are retold here after paper PMC4913548 (OncoTargets and therapy, 2016).

The target of the assay is estrogen receptor α (Homo sapiens, UniProt P03372). Nature of the assay: ERE-Luc/catD-Luc reporter assay in SH-SY5Y cells. It counts as cell-based. In general terms: A reporter such as luciferase makes a cellular process visible.
estrogen receptor α, sequence (P03372 whole entry): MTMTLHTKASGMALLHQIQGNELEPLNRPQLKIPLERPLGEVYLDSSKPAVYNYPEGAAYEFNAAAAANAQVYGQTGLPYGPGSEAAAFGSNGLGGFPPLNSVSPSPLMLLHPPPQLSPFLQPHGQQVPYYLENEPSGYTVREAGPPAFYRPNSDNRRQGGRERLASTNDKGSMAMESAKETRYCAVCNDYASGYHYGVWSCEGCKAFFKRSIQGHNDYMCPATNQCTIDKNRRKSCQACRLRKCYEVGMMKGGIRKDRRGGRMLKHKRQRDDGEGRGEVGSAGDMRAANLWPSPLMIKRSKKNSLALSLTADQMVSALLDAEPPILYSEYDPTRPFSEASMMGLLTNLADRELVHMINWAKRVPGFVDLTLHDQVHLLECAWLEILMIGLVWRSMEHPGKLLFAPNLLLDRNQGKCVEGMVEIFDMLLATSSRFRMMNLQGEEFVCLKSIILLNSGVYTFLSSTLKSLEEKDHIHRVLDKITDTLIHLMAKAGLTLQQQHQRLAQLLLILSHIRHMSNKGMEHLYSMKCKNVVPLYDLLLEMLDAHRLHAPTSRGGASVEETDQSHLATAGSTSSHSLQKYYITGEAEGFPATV

A word on the EC50: it is the concentration that produces a half-maximal response. Low readings indicate an effect from little substance, high ones a need for much substance. On to nonylphenol, for which it took 0.58 ± 0.25 µM to reach a half-maximal effect (EC50).
